According to patent publication US6541483B2, “Acridone-derived compounds useful as antineoplastic and antiretroviral agents” (The United States of America as represented by the …, priority 1996, dated 2003):
Read-outs that look alike come from different tables or passages of the source.

Experiments:
[1] = test system: HIV-1 LTR-directed chloramphenicol acetyltransferase (CAT) activity; test: LTR-directed CAT activity in BF-24 cells; format: cell-based; conditions: 24 h, temacrazine up to 5 μM
From the text: Initiation and regulation of HIV-1 transcription requires a complex series of interactions with cellular transcription factors, such as NFkB, SP-1 and AP-1, and the participation of cellular factors in the transcriptional complex. In addition, the post-integrative model used here requires TNFα stimulated U1 and ACH-2 cells, this model requires not only the participation of the NFkB transcriptional complex, and also components of the TNFα signaling pathway. In order to rule out that temacrazine was non-specifically effecting transcription or down-regulating replication by interfering with the TNFα signal pathway, LTR-directed chloramphenicol acetyltransferase (CAT) activity was measured in BF-24 cells. BF-24 cells are derived from the THP-1 monocytic cell line and carry a stably integrated CAT gene under the transcriptional control of the HIV-1 LTR (S. Schwartz, et al., Proc. Natl. Acad. Sci. USA 86:7200 (1989); B. K. Felber, et al., Science 239:184 (1988)). The LTR in this monocytic cell line is inducible by IL-6, PMA and TNFα, and produces enzymatically active chloramphenicol transferase (“CAT”). […]
CAT activity was determined using a fluorescent Bodipy conjugated chloramphenicol after 18 h of reaction with 50 μg of protein extract containing Acetyl CoA.

[2] = test system: renal carcinoma RXF (1220/5); test: clonogenic assay, renal carcinoma line; format: cell-based, human
Protocol: (§1) The activity of compound (4) was tested against several tumor xenografts in vitro. The experiments was carried out on cell lines derived from these tumors, utilizing a standard clonogenic assay protocol.

[3] = test system: mammary tumor MACL (MCF7X/13); test: clonogenic assay, mammary tumor line; format: cell-based, human
Protocol: as §1

[4] = test system: prostate cancer cell line PRXF (PX2M/27), PC3M; test: clonogenic assay, prostate cancer line PC3M; format: cell-based, human
Protocol: as §1

[5] = test system: cell lines derived from tumor xenografts; test: clonogenic assay, mean over all tumor xenograft lines; format: cell-based, human; conditions: all of the lines tested
Protocol: as §1

[6] = test system: prostate cancer cell line PRXF (DU145X/2); test: clonogenic assay, prostate cancer line DU145X; format: cell-based, human
Protocol: as §1

[7] = test system: melanoma MEXF (514/12); test: clonogenic assay, melanoma line; format: cell-based, human
Protocol: as §1

[8] = test system: gastric carcinoma GFX (251/14); test: clonogenic assay, gastric carcinoma line; format: cell-based, human
Protocol: as §1

[9] = target: HIV-1 reverse transcriptase (Human immunodeficiency virus type 1 group M subtype B, UniProt P04585); test: reverse transcriptase enzyme activity; format: biochemical
From the text: (§2) Based on the findings thus far our efforts have focused on biological assays of the temacrazine congener.

[10] = test system: HIV-1ADA; test: anti-HIV-1 activity in monocyte/macrophage cultures; format: cell-based; conditions: Human immunodeficiency virus 1, read-out: Mo/Mφ EC50
Protocol: (§3) The antiviral properties of the WMC series of compounds were evaluated. First, all compounds were tested for their ability to inhibit HIV-1 replication in cell culture using the XTT cytoprotection assay. This assay measures the concentration-dependent capacity of compounds to protect CEM-SS cells from the cytopathic effects of HIV-1. […] Thus, temacrazine was the most efficacious compound in the XTT cytoprotection assay. This conclusion was also reached when the compounds were tested for anti-HIV-1 activity against HIV-1ADA in human monocyte/macrophage cultures (Table 1).

[11] = test system: human monocyte/macrophage cultures; test: toxicity in monocyte/macrophage cultures; format: cell-based; conditions: Homo sapiens, read-out: Mo/Mφ IC50
Protocol: as §3

[12] = test system: attachment of HIV-1RF to CEM-SS cells; test: attachment of virions to CEM-SS cells (cell-bound p24 ELISA); format: cell-based; conditions: Human immunodeficiency virus 1, CEM-SS, read-out: Attachment ID50
From the text: as §2

[13] = test system: HIV-1; test: XTT cytoprotection assay in CEM-SS cells (antiviral EC50); format: cell-based; conditions: for XTT Assay EC50: Table 1; for cytoprotective activity: HIV-1-infected CEM SS leukemia cells
From the text: (§4) Briefly, the infected cells in culture are killed by the virus, and the cytotoxicity is detected by the formation of color due to the […] of a formazan dye (XTT) by enzymes released by the dying cells (Weislow et al., J. Natl. Cancer Inst. 81:577-586, 1989). An effective antiviral drug is able to protect the infected cells from cytotoxicity by inhibiting some vital function of the virus. […] FIGS. 4 and 5 show the cytoprotective activity of WMC26 and WMC42. Since many drugs can also be toxic to cells in their own right, a parallel experiment is carried out wherein uninfected cells are treated with the drugs until a concentration is reached where the cells are killed by the action of the drug.
(§5) As a result of these preliminary data, additional experiments were carried out to establish the antiviral activity in other cell lines, using a variety of protocols. The preliminary experiments in lymphocytes were confirmed using infected macrophages. Much more extensive experiments were carried out in HIV-1-infected CEM SS leukemia cells. […] However, two derivatives were found which had low antileukemic activity while maintaining high antiviral activity. […] This gives a therapeutic index of more than 3 orders of magnitude. The corresponding therapeutic index for WMC50 is about 100-200, which is quite acceptable. Additional experiments were carried out on WMC-70. […] Further, WMC-70 appears to affect post-transcription events in the virus. […] While the inhibition of integration appears to be the principal mechanism by which this compound exerts its antiviral activity, there are perhaps other mechanisms which are also involved in the therapeutic action of this drug, and by extension, of other antiviral drugs of this class.
as §3

[14] = test system: CEM-SS cells; test: XTT assay toxicity in CEM-SS cells (IC50); format: cell-based; conditions: Homo sapiens, CEM-SS
From the text: as §4, §5, §3

[15] = target: p7 nucleocapsid protein zinc fingers (Human immunodeficiency virus type 1 group M subtype B, UniProt P04591); test: p7NC zinc finger fluorescence assays (TSQ, Trp37); format: biochemical, HIV-1
From the text: as §2

[16] = test system: leukemia; conditions: Cholody et al. 1995; cited from earlier work
[17] = test system: HIV-1; test: XTT cytoprotection assay in HIV-1 infected peripheral blood lymphocytes; format: cell-based; conditions: for cytoprotective activity: HIV-1 infected lymphocytes versus uninfected cells; for therapeutic index: lymphocyte cytoprotection assay
From the text: These compounds and several others were then examined in a cytoprotection assay involving peripheral blood lymphocytes which had been infected with HIV-1.
as §4

[18] = target: HIV-1 integrase (Human immunodeficiency virus type 1 group M subtype B, UniProt P04585); test: in vitro integration and disintegration with full length purified integrase; format: biochemical; set-up: utilized the full length purified HIV-1 integrase; conditions: full length purified HIV-1 integrase
[19] = test system: HIV-1RF; test: nude mouse hollow fiber model of HIV-1 replication; format: in vivo, nude mice; conditions: 40 mg/Kg q8h intraperitoneally
From the text: The novel mechanism of action of temacrazine and its broad range of activity against HIV-1 and its high therapeutic indexes led us to assess its in vivo and anti-viral properties in a nude mouse hollow fiber model of HIV-1 replication. Briefly, CEM-SS cells are infected with HIV-1RF and placed into hollow fibers and implanted intraperitoneal or subcutaneously into nude mice. […] Similarly, mice are being treated by oral and intravenous administration of temacrazine. Peritoneal washes and serum samples were collected and p24 expression determined by antigen capture. Intraperitoneal administration of temacrazine reduced the amount of detectable p24 in peritoneal washes by 5 to 10 fold independently of the dosage schedule. […] Thus, temacrazine reduces HIV-1 replication in vivo.

**Q.** Which “CAT induction by TNFα” value [1] does the source give for `Cc1cn([C@H]2C[C@H](N=[N+]=[N-])[C@@H](CO)O2)c(=O)[nH]c1=O` [AZT, reference compound] here?
**A.** Its value is “inactive”.

**Q.** Which “sensitivity to the drug” value [2] does the source give for `O=c1c2ccccc2n2cnc3ccc(NCCCN4CCN(CCCNc5ccc6ncn7c8ccccc8c(=O)c5c67)CC4)c1c32` [Compound 4, 1,4-bis[3-[(6-oxo-6H-imidazo[4,5,1-de]-acridin-5-yl)amino]propyl]piperazine] here?
**A.** Its value is “completely insensitive”.

**Q.** What about the “sensitivity to the drug” value [3] of the same compound?
**A.** Its value is “over twice the median dose”.

**Q.** And the IC70 ([4]; PC3M)?
**A.** Its IC70 is “less than 1 nanogram/mL”.

**Q.** What about the “sensitivity to the drug” value ([4]; PRXF PX2M/27) of the same compound?
**A.** The value was “very sensitive”.

**Q.** And the “mean IC70 (concentration resulting in 70% killing of the tumor cells)” value [5]?
**A.** Its value is 2.3 µg/mL.

**Q.** What about the “sensitivity to the drug” value [6] of the same compound?
**A.** Its value is “very sensitive”.

**Q.** And the “sensitivity to the drug” value [7]?
**A.** The value was “completely insensitive”.

**Q.** And the “sensitivity to the drug” value [8]?
**A.** Its value is “sensitive at the median dose”.

**Q.** What does the source list for `CN(CCCNc1ccc2ncn3c4ccccc4c(=O)c1c23)CCCNc1ccc2ncn3c4ccccc4c(=O)c1c23` [Compound 682401]?
**A.** IC50 [9]: > 100000 nM; EC50 [10]: 50 nM; IC50 [11]: 1000 nM; IC50 [12]: > 100000 nM; XTT Assay EC50 ([13]; CEM-SS cells): Inactive

**Q.** For `CN(CCCNc1ccc2ncn3c4ccccc4c(=O)c1c23)CCCNc1ccc2nnn3c4ccccc4c(=O)c1c23` [Compound 682402], which IC50 [9] is on record?
**A.** The IC50 was > 100000 nM.

**Q.** What about the EC50 [10] of the same compound?
**A.** The EC50 was 160 nM.

**Q.** What about the IC50 [11] of the same compound?
**A.** Its IC50 is 10000 nM.

**Q.** And the IC50 [12]?
**A.** Its IC50 is > 100000 nM.

**Q.** And the “XTT Assay EC50” value ([13]; CEM-SS cells)?
**A.** Its value is “Inactive”.

**Q.** For `CN(CCCNc1ccc2nnn3c4ccccc4c(=O)c1c23)CCCNc1ccc2nnn3c4ccccc4c(=O)c1c23` [Compound 682403], which “XTT Assay EC50” value ([13]; CEM-SS cells) is on record?
**A.** Its value is “Inactive”.

**Q.** With `O=c1c2ccccc2n2cnc3ccc(NCCCN4CCN(CCCNc5ccc6nnn7c8ccccc8c(=O)c5c67)CC4)c1c32` [Compound 682404] as the compound, how does the IC50 [9] read?
**A.** Its IC50 is 35000 nM.

**Q.** And the EC50 [10]?
**A.** The EC50 was 100 nM.

**Q.** And the IC50 [11]?
**A.** Its IC50 is 10000 nM.

**Q.** And the IC50 [12]?
**A.** Its IC50 is > 100000 nM.

**Q.** What about the therapeutic index ([13]; CEM SS cells) of the same compound?
**A.** Its therapeutic index is 100-200.

**Q.** What about the cytoprotective activity [13] of the same compound?
**A.** Its cytoprotective activity is “cytoprotective at very low concentrations”.

**Q.** And the EC50 ([13]; Human immunodeficiency virus 1, CEM-SS, read-out: XTT Assay EC50)?
**A.** The EC50 was 0.41 nM.

**Q.** What about the EC50 ([13]; Human immunodeficiency virus 1, CEM-SS cells, read-out: EC50 antiviral value, XTT cytoprotection assay) of the same compound?
**A.** The EC50 was 0.41 nM.

**Q.** And the IC50 ([14]; read-out: IC50 toxicity value, XTT assay)?
**A.** Its IC50 is 158 nM.

**Q.** And the IC50 ([14]; read-out: XTT Assay IC50)?
**A.** Its IC50 is 158 nM.

**Q.** For `Cc1cn([C@H]2C[C@H](N=[N+]=[N-])[C@@H](CO[P@](=O)(O)O[P@](=O)(O)OP(=O)(O)O)O2)c(=O)[nH]c1=O` [Compound A2TTP, reference compound], which IC50 ([9]; rAdT Template/primer, control compound, read-out: I50 RT Enzyme Activity) is on record?
**A.** The IC50 was 27 nM.

**Q.** What does the source list for `O=S1(=O)C[C@H](O)[C@H](O)CS1` [NSC 624151]?
**A.** NCp7 TSQ (Increase in RFU/90 min) [15]: 17 (NSC 624151) RFU/90 min; NCp7 Trp37 (Decrease in RFU/10 min) [15]: 145 (NSC 624151) RFU/10 min

**Q.** With `CC(C)OC(=O)c1cc(NC(=S)OC(C)C)ccc1Cl` [UC38, reference compound] as the compound, how does the IC50 ([9]; rCdG Template/primer, control compound, read-out: I50 RT Enzyme Activity) read?
**A.** The IC50 was 6 nM.

**Q.** For `CN(CCCNc1ccc2ncn3c4ccccc4c(=O)c1c23)CCCNc1ccc2ncn3c4ccccc4c(=O)c1c23` [WMC26], which cytotoxicity to leukemia [16] is on record?
**A.** Its cytotoxicity to leukemia is “very potently (nanomolar levels) cytotoxic”.

**Q.** What about the cytoprotective activity [13] of the same compound?
**A.** The cytoprotective activity was “could not be shown to be cytoprotective”.

**Q.** And the cytoprotective activity [17]?
**A.** The cytoprotective activity was “able to protect the infected lymphocytes at concentrations far lower than those which resulted in drug induced killing”.

**Q.** And the therapeutic index [17]?
**A.** Its therapeutic index is “very good therapeutic indices”.

**Q.** What about the “inhibition of integration and disintegration steps” value [18] of the same compound?
**A.** Its value is “inhibited both the integration and disintegration steps”.

**Q.** With `CN(CCCNc1ccc2ncn3c4ccccc4c(=O)c1c23)CCCNc1ccc2nnn3c4ccccc4c(=O)c1c23` [WMC42] as the compound, how does the cytoprotective activity [17] read?
**A.** Its cytoprotective activity is “able to protect the infected lymphocytes at concentrations far lower than those which resulted in drug induced killing”.

**Q.** And the therapeutic index [17]?
**A.** Its therapeutic index is “very good therapeutic indices”.

**Q.** What about the “inhibition of integration and disintegration steps” value [18] of the same compound?
**A.** The value was “inhibited both the integration and disintegration steps”.

**Q.** Which “Peritoneal Wash p24, mean” value [19] does the source give for `Nc1ccn([C@H]2CC[C@@H](CO)O2)c(=O)n1` [ddC, reference compound] here?
**A.** The value was 7 pg p24.

**Q.** What about the “Serum p24, mean” value [19] of the same compound?
**A.** Its value is 87 pg p24.
